This note sets out measurements from US4175125A, “Method for treating methicillin resistant staphylococcus aureus” (Eli Lilly and Company, priority 1978, dated 1979).

Where a name gives a salt, the structure may show the parent alone. Read-outs that look alike come from different tables or passages of the source.

As a reminder, the ED50 is the midpoint of the dose-response relation.

The experiment concerns Streptococcus pyogenes, strain C203. The experiment is described as follows: Streptococcus pyogenes infection in mice, median effective dose (Example 12). Type of experiment: in vivo. Here is the method:
The compound 7-[2"-(3"-chloro-4"-fluorophenyltio)acetamido]cephalosporanic acid, prepared as described in Example 8, was tested for antibiotic effectiveness against Streptococcus pyogenes, strain C203 infections in mice, and is compared with the effectiveness of cephaloridine in the same test. Experience has shown with other compounds, some of which are now commercial antibiotics, that a compound effective against Streptococcus pyrogenes, strain C203 in this test will be effective against Staphylococcus aureus strains in clinical use. This is intended as further evidence that the compounds of the method of this invention should be effective antibiotics in clinical situations.
In this test, a standard in vivo test method described by Wick, W. E., F. Streightoff, and D. H. Holmes. 1961, in J. Bacteriol., 81: 233-235 was used. The oral and subcutaneous median effective doses (ED50) necessary to cure 50 percent of the mice were calculated according to the method of Reed and Muench (Reed, L. J., and H. Meunch. 1938. Am. J. Hyg. 27: 493-497) The results were as follows: […]

For `O=C(Cc1cccs1)N[C@@H]1C(=O)N2C(C(=O)[O-])=C(C[n+]3ccccc3)CS[C@H]12` [Cephaloridine, cephaloridine, reference compound], the ED50 reads like this: (C203, po) 0.323 mg/kg; (C203, sc) 0.1 mg/kg.

In the case of `CC(=O)OCC1=C(C(=O)O)N2C(=O)C(NC(=O)CSc3ccc(F)c(Cl)c3)C2SC1` (stereo not shown) [Example 8, 7-(3'-chloro-4-fluorophenylthioacetamido)cephalosporanic acid, sodium salt], the ED50 is 7 mg/kg (C203, oral, infecting challenge 27.9 (XLD50), read-out: ED50) and < 0.21 mg/kg (C203, sc, subcut, infecting challenge 27.9 (XLD50), read-out: ED50).
